IC50 data for 27 compounds are collected here from US20030158199A1, “Novel compounds for inhibition of Tie-2” (KYLIX, B.V., priority 2002, published 2003).

What all share (type): biochemical
One experiment deals with T1, c-Met (Homo sapiens, UniProt P08581).
T1 construct: GST-cMet (aa956-1390); GST (N); purchased ProQuinase, Freiburg; host or cells: baculovirus infected insect cells Sf9
Kind of experiment: RTK ELISA, recombinant kinase domain, c-Met. As to conditions: GST-cMet (aa956-1390) expressed in baculovirus infected insect cells. The protocol: (§1) Follwing IC50 values were determined in the RTK ELISA using recombinant kinase domains of receptor tyrosine kinases which were expressed in baculovirus infected insect cells.
(§2) Receptor Tyrosine Kinase Assay
(§3) The following in vitro assays are used to determine the ability of different compounds to inhibit the transfer of phosphate groups onto tyrosine residues of downstream substrates. The level of phosphorylation is measured by a monoclonal antibody which is specific for phosphorylated tyrosine residues in an enzyme-linked immunosorbent assay (ELISA).
(§4) The following recombinant kinases were expressed in baculovirus infected insect cells Sf9 and purchased from ProQuinase, Freiburg:
(§5) If not otherwise indicated all steps are performed at room temperature.
(§6) 1.) Coat wells of ELISA plate with […] Poly-Glu-Tyr 4:1 in 100 μl/well PBS buffer (137 mM NaCl, 3 mM KCl, 1.5 mM KH2PO4, 8.2 mM Na2HPO4) overnight at 4° C.
(§7) 2.) Wash 2 times for 5 min each with PBS+0.05% Tween20 […]
(§8) a) Add 5-30 ng/well kinase in 50 μl/well kinase buffer (100 mM HEPES pH 7.4, 100 mM NaCl, 0.1 mM Na3VO4) b) Add 25 μl/well compound (50 and 5 μM) in 5% DMSO c) Add 25 μl/well 100 μM ATP in 40 mM MnCl2
(§9) 4.) Wash 3 times for 5 min each with PBS+0.05% Tween20
(§10) 5.) Add anti phosphotyrosin antibody/HRP 1:10.000 in 100 μl/well PBS+0.05% Tween+0.1 BSA, incubate for 1 h
(§11) 6.) Wash 3 times for 5 min each with PBS+0.05% Tween20
(§12) 7.) Chemoluminescence reaction: a.) Premix 25 μl/well BM CLS Solution 1 with 0.25 μl/well BM CLS Solution 2 b.) Preincubate for 15 min […]
(§13) d.) Add 50 μl/well substrate solution to microtiter wells e.) Incubate for at least 1 min
(§14) 8.) Detect chemoluminescence signals in Tecan Genios reader

Another experiment concerns the target T2, Tie-2 (Homo sapiens, UniProt Q02763).
T2 construct: GST-Tie2/Tek (aa 771-1124); GST (N); purchased ProQuinase, Freiburg; host or cells: baculovirus infected insect cells Sf9
Put plainly: RTK ELISA, recombinant kinase domain, Tie-2. As to conditions: GST-Tie2/Tek (aa 771-1124) expressed in baculovirus infected insect cells. As for the experimental part: as §1, §2, §3, §4, §5, §6, §7, §8, §9, §10, §11, §12, §13, §14
(In general: In an ELISA, binding on a coated surface is turned into a signal by an enzyme label.)

A further experiment addresses T3, KDR (Homo sapiens, UniProt P35968).
T3 construct: GST-KDR (aa807-1356); GST (N); purchased ProQuinase, Freiburg; host or cells: baculovirus infected insect cells Sf9
Kind of experiment: RTK ELISA, recombinant kinase domain, KDR. As to conditions: GST-KDR (aa807-1356) expressed in baculovirus infected insect cells. As for the experimental part: as §1, §2, §3, §4, §5, §6, §7, §8, §9, §10, §11, §12, §13, §14

Where a name gives a salt, the structure may show the parent alone.

T2 sequence (Q02763 771-1124): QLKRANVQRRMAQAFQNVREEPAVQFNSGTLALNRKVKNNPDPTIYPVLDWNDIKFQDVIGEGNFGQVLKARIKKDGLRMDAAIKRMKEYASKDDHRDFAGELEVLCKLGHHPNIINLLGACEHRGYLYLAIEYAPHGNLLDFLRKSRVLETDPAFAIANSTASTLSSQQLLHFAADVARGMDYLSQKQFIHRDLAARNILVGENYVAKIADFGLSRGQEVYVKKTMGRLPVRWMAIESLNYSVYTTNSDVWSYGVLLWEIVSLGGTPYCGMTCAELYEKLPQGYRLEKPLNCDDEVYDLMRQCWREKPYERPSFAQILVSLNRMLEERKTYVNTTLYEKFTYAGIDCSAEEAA
T3 sequence (P35968 807-1356): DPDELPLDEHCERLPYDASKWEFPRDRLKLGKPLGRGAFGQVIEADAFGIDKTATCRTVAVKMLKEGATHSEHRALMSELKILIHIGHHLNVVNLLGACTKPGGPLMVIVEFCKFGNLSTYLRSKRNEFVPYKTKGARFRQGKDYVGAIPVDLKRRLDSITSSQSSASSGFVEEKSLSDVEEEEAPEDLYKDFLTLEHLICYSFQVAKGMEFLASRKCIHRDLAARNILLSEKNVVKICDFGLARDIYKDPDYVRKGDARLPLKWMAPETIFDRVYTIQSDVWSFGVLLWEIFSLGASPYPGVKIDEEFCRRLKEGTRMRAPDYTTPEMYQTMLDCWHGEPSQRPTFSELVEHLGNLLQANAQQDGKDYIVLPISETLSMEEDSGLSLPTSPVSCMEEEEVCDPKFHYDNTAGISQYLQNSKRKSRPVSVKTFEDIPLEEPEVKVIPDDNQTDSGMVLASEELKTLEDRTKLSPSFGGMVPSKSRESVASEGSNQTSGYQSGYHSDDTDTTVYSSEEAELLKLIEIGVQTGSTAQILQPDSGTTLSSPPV
T1 sequence (P08581 956-1390): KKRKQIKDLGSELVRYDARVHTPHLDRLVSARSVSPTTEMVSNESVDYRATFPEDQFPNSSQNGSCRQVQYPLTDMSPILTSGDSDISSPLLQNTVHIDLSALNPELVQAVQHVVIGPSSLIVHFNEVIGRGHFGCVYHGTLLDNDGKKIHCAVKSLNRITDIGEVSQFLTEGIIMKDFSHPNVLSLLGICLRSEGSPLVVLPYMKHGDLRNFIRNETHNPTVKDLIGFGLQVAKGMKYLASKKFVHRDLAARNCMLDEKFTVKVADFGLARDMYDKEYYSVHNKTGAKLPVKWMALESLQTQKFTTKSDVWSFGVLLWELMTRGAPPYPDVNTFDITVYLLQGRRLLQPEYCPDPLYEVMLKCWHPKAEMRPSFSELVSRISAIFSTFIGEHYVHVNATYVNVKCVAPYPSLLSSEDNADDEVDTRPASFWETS

For the compound `Cc1nc(-c2ccc(N3CCCC3)cc2)cs1` [Number 21, 2-methyl-4-(4-pyrrolidin-1-yl-phenyl)-thiazole Hydrobromide], the IC50 at c-Met is more than 50 µM; on Tie-2 it was 2.5 µM.

Regarding `c1cc(Nc2nc(-c3ccc(N4CCCC4)cc3)cs2)ccn1` [Number 15, pyridin-4-yl-[4-(4-pyrrolidin-1-yl-phenyl)-thiazol-2-yl]-amine Hydrobromide], the 50% inhibitory concentration (IC50) is more than 10 µM on c-Met, 1 µM on Tie-2 and 5 µM on KDR.

As for `Nc1nc(-c2ccc(N3CCCC3)cc2)co1` [Number 6, 4-(4-pyrrolidin-1-yl-phenyl)-oxazol-2-ylamine Hydrobromide], the IC50 is more than 50 µM on c-Met, 5 µM at Tie-2 and more than 25 µM at KDR.

Regarding `FC(F)(F)c1cccc(Nc2nc(-c3ccc(N4CCCC4)cc3)cs2)c1` [Number 19, [4-(4-pyrrolidin-1-yl-phenyl)-thiazol-2-yl]-(3-trifluoromethyl-phenyl)-amine Hydrobromide], the concentration for half-maximal inhibition (IC50) at c-Met was more than 50 µM; on Tie-2, 2 µM; at KDR it was 2 µM.

Consider `CN(c1ccccc1)c1nc(-c2ccc(N3CCCC3)cc2)cs1` [Number 9, methyl-phenyl-[4-(4-pyrrolidin-1-yl-phenyl)-thiazol-2-yl]-amine Hydrobromide], for which the values for the concentration for half-maximal inhibition (IC50) on c-Met, on Tie-2 and on KDR were more than 25 µM, 2.5 µM and more than 25 µM, respectively.

Regarding `CCN(CC)c1ccc(-c2csc(N)n2)cc1` [Number 23, 4-(4-diethylamino-phenyl)-thiazol-2-ylamine Hydrobromide], the IC50 at c-Met is more than 50 µM; on Tie-2, 5 µM; on KDR, 2 µM.

With `CNc1nc(-c2ccc(-c3ccccn3)s2)cs1` [Number 36, methyl-[4-(5-pyridin-2-yl-thiophen-2-yl)-thiazol-2-yl]-amine Hydrobromide], the concentration for half-maximal inhibition (IC50) on c-Met is more than 50 µM; on Tie-2 it was more than 20 µM; on KDR it was more than 10 µM.

Take `c1ccc(-c2ccc(-c3csc(Nc4cccnc4)n3)s2)nc1` [Number 37, pyridin-3-yl-[(4-(5-pyridin-2-yl-thiophen-2-yl)-thiazol-2-yl]-amine Hydrobromide]: the IC50 at c-Met was more than 50 µM; on Tie-2, 2.5 µM; at KDR it was more than 50 µM.

As for `c1ccc(Nc2nc(-c3ccc(N4CCCC4)cc3)cs2)cc1` [Number 8, phenyl-[4-(4-pyrrolidin-1-yl-phenyl)-thiazol-2-yl]-amine Hydrobromide], the 50% inhibitory concentration (IC50) on c-Met is more than 25 µM; at Tie-2, 5 µM; on KDR, 2.5 µM.

Consider `CCN(CC)c1ccc(-c2csc(C)n2)cc1` [Number 33, diethyl-[4-(2-methyl-thiazol-4-yl)-phenyl]-amine Hydrobromide], for which the IC50 on c-Met is more than 50 µM; on Tie-2 it was 5 µM; on KDR it was 5 µM.

On to `c1cncc(Nc2nc(-c3ccc(N4CCCC4)cc3)cs2)c1` [Number 13, Hydrobromide], for which the IC50 on c-Met is more than 10 µM; on Tie-2 it was 1 µM; at KDR it was 2 µM.

Regarding `CNc1nc(-c2ccc(N3CCCC3)cc2)cs1` [Number 7, methyl-[4-(4-pyrrolidin-1-yl-phenyl)-thiazol-2-yl]-amine Hydrobromide], the figures for the IC50 on c-Met, on Tie-2 and on KDR were more than 50 µM, 3 µM and 7 µM, respectively.

Take `c1cncc(Nc2nccs2)c1` [Number 4, pyridin-3-yl-thiazol-2-yl-amine Hydrochloride]: the results for the half-maximal inhibitory concentration (IC50) on c-Met, on Tie-2 and at KDR were more than 25 µM, more than 50 µM and 5 µM, respectively.

With `c1cc(Nc2nc(-c3ccc(N4CCCC4)cc3)cs2)ccc1Nc1nc(-c2ccc(N3CCCC3)cc2)cs1` [Number 18, N,N′-bis-[4-(4-pyrrolidin-1-yl-phenyl)-thiazol-2-yl]-benzene-1,4-diamine Dihydrobromide], the IC50 at c-Met is more than 50 µM; at Tie-2, more than 10 µM; on KDR, more than 10 µM.

As to `O=[N+]([O-])c1ccc(Nc2nc(-c3ccc(N4CCCC4)cc3)cs2)cc1` [Number 17, Dihydrobromide], the IC50 is more than 25 µM at c-Met, 2 µM on Tie-2 and more than 10 µM at KDR.

For `CCN(CC)c1ccc(-c2csc(Nc3ccccc3)n2)cc1` [Number 26, [4-(4-Diethylamino-phenyl)-thiazol-2-yl]-phenyl-amine Hydrobromide], the IC50 at c-Met was more than 25 µM; on Tie-2, 2 µM; at KDR it was 2 µM.

On to `c1cc(-c2nc(-c3ccc(N4CCCC4)cc3)co2)ccn1` [Number 16, 4-[4-(4-pyrzolidin-1-yl-phenyl)-oxazol-2-yl]-pyridine Hydrobromide], for which the IC50 at c-Met, on Tie-2 and at KDR was more than 50 µM each time.

For the compound `CNc1nc(-c2cnn(-c3ccccc3)c2C)cs1` [Number 34, methyl-[4-(5-methyl-1-phenyl-1H-pyrazol-4-yl)-thiazol-2-yl]-amine Hydrochloride], the results for the IC50 at c-Met, at Tie-2 and at KDR were more than 50 µM, 1.5 µM and 1.5 µM, respectively.

Consider `CNc1nccs1` [Number 2, methyl-thiazol-2-yl-amine Hydrochloride], for which the 50% inhibitory concentration (IC50) at c-Met was more than 50 µM; on Tie-2 it was more than 50 µM; at KDR, 5 µM.

Consider `CCN(CC)c1ccc(-c2csc(N(C)c3ccccc3)n2)cc1` [Number 27, [4-(4-diethylamino-phenyl)-thiazol-2-yl]-methyl-phenyl-amine Hydrobromide], for which the IC50 at c-Met, on Tie-2 and at KDR was more than 50 µM each time.

For `c1ccc(CNc2nc(-c3ccc(N4CCCC4)cc3)cs2)cc1` [Number 10, benzyl-[4-(4-pyrrolidin-1-yl-phenyl)-thiazol-2-yl]-amine Hydrobromide], the values for the IC50 at c-Met, at Tie-2 and at KDR were more than 50 µM, 5 µM and more than 50 µM, respectively.

For the compound `c1ccc(Nc2nccs2)cc1` [Number 3, phenyl-thiazol-2-yl-amine Hydrochloride], the IC50 was more than 50 µM on c-Met and 3.5 µM on KDR.

Regarding `c1ccc(CCNc2nc(-c3ccccn3)cs2)cc1` [Number 35, phenylethyl-(4-pyridin-2-yl-thiazol-2-yl)-amine Hydrobromide], the IC50 worked out at 2 µM at c-Met, 1 µM at Tie-2 and 1 µM at KDR.

With `c1ccc(Nc2nc(-c3ccc(N4CCCC4)cc3)cs2)nc1` [Number 12, Hydrobromide], at Tie-2, the IC50 was more than 50 µM.

With `c1ccc(CCNc2nc(-c3ccc(N4CCCC4)cc3)cs2)cc1` [Number 11, phenylethyl-[4-(4-pyrrolidin-1-yl-phenyl)-thiazol-2-yl]-amine Hydrobromide], the IC50 on Tie-2 is more than 50 µM.

With `CCN(CC)c1ccc(-c2csc(NC)n2)cc1` [Number 25, [4-(4-diethylamino-phenyl)-thiazol-2-yl]-methyl-amine Hydrobromide], the values for the IC50 on c-Met, on Tie-2 and on KDR were more than 50 µM, 1 µM and 5 µM, respectively.

In the case of `Nc1nc(-c2ccc(N3CCCC3)cc2)cs1` [Number 5, 4-(4-pyrrolidin-1-yl-phenyl)-thiazol-2-ylamine Hydrobromide], the IC50 stood at 5 µM at c-Met, 2.5 µM at Tie-2 and 5 µM on KDR.

What is called IC50 is the concentration that inhibits the measured activity by half.
